Results reported in patent US5604234A, “Substituted thiol macrolactam immunomodulators” (Abbott Laboratories, priority 1995, dated 1997).

The molecules below were run on human mixed lymphocyte reaction (MLR) (assay: human mixed lymphocyte reaction (MLR) assay, immunosuppressant activity). Details: Homo sapiens, Lymphocyte, Table 2.
Assay type: cell-based
Experimental: The immunosuppressant activity of the compounds of the present invention was determined using the human mixed lymphocyte reaction (MLR) assay described by Kino, T. et al. in Transplantation Proceedings, XIX(5):36-39,Suppl. 6 (1987).
`CCC1C=C(C)CC(C)CC(OC)C2OC(O)(C(=O)C(=O)N3CCCCC3C(=O)OC(C(C)=CC3CCC(SCCC(=O)OCc4ccccc4)C(OC)C3)C(C)C(O)CC1=O)C(C)CC2OC` (centres unmarked) [Example 18] showed an IC50 of 18.5 nM. In the case of `CC[C@@H]1/C=C(\C)C[C@H](C)C[C@H](OC)[C@H]2O[C@@](O)(C(=O)C(=O)N3CCCC[C@H]3C(=O)O[C@H](/C(C)=C/[C@@H]3CC[C@H](SC)[C@H](OC)C3)[C@H](C)[C@@H](O)CC1=O)[C@H](C)C[C@@H]2OC` [Example 90], the IC50 is reported as 0.75 nM. With `CC[C@@H]1/C=C(\C)C[C@H](C)C[C@H](OC)[C@H]2O[C@@](O)(C(=O)C(=O)N3CCCC[C@H]3C(=O)O[C@H](/C(C)=C/[C@@H]3CC[C@H]([S+](C)[O-])[C@H](OC)C3)[C@H](C)[C@@H](O)CC1=O)[C@H](C)C[C@@H]2OC` (some centres unmarked) [Example 128] the IC50 was 15.5 nM. Molecule `CC[C@@H]1/C=C(\C)C[C@H](C)C[C@H](OC)[C@H]2O[C@@](O)(C(=O)C(=O)N3CCCC[C@H]3C(=O)O[C@H](/C(C)=C/[C@@H]3CC[C@H](S(C)(=O)=O)[C@H](OC)C3)[C@H](C)[C@@H](O)CC1=O)[C@H](C)C[C@@H]2OC` [Example 129] has an IC50 of 1.15 nM. `CC[C@@H]1/C=C(\C)C[C@H](C)C[C@H](OC)[C@H]2O[C@@](O)(C(=O)C(=O)N3CCCC[C@H]3C(=O)O[C@H](/C(C)=C/[C@@H]3CC[C@H](SCSC)[C@H](OC)C3)[C@H](C)[C@@H](O)CC1=O)[C@H](C)C[C@@H]2OC` [Example 130] showed an IC50 of 0.58 nM. `CC[C@@H]1/C=C(\C)C[C@H](C)C[C@H](OC)[C@H]2O[C@@](O)(C(=O)C(=O)N3CCCC[C@H]3C(=O)O[C@H](/C(C)=C/[C@@H]3CC[C@H](SCOC)[C@H](OC)C3)[C@H](C)[C@@H](O)CC1=O)[C@H](C)C[C@@H]2OC` [Example 131] was tested, and the IC50 was 5.2 nM. With `CC[C@@H]1/C=C(\C)C[C@H](C)C[C@H](OC)[C@H]2O[C@@](O)(C(=O)C(=O)N3CCCC[C@H]3C(=O)O[C@H](/C(C)=C/[C@@H]3CC[C@H](Sc4ccccc4)[C@H](OC)C3)[C@H](C)[C@@H](O)CC1=O)[C@H](C)C[C@@H]2OC` [Example 132] the IC50 was 3.4 nM.

Same assay, conditions: Table 2
`CC[C@@H]1/C=C(\C)C[C@H](C)C[C@H](OC)[C@H]2O[C@@](O)(C(=O)C(=O)N3CCCC[C@H]3C(=O)O[C@H](/C(C)=C/[C@@H]3CC[C@H]([S+]([O-])c4ccccc4)[C@H](OC)C3)[C@H](C)[C@@H](O)CC1=O)[C@H](C)C[C@@H]2OC` (single isomer, unassigned) [Example 133B] gave an IC50 of 6.5 nM.
